Legend:
[1] = biological target: T1, Cysteinyl leukotriene receptor 1 (Homo sapiens, UniProt Q9Y271); assay type: cell membranes, Membrane; conditions: cho-k1; also: in other assays of this panel Not Active means under 50% inhibition at 10 µM
T1 sequence (Q9Y271 whole entry): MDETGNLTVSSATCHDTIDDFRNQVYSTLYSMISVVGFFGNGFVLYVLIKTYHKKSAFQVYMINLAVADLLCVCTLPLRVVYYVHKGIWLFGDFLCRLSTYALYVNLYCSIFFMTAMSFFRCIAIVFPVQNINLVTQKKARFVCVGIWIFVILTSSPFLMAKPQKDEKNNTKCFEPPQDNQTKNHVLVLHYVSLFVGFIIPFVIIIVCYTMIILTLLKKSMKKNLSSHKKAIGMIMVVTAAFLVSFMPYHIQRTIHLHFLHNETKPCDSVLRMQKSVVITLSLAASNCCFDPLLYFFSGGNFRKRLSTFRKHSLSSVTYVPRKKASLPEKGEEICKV

[2] = biological target: T2, C-X-C chemokine receptor type 1 (Homo sapiens, UniProt P25024); also: in other assays of this panel Not Active means under 50% inhibition at 10 µM
T2 sequence (P25024 whole entry): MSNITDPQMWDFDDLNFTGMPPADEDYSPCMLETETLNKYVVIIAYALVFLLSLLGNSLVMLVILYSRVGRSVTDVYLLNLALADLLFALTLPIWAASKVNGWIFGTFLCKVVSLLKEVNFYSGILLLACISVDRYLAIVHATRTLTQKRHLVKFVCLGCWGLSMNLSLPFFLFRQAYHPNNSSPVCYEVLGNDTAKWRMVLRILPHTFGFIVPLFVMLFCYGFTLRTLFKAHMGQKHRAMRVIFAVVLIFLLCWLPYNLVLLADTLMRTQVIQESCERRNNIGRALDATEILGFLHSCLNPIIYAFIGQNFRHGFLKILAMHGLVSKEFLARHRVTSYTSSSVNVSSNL

[3] = biological target: C-C chemokine receptor type 2 (Homo sapiens, UniProt P41597); assay type: cell membranes, Membrane; conditions: cho-k1; also: in other assays of this panel Not Active means under 50% inhibition at 10 µM
[4] = biological target: T3, Type-2 angiotensin II receptor (Homo sapiens, UniProt P50052); test: biochemical; assay type: cell-based, CHO-K1; conditions: cho-k1; also: in other assays of this panel Not Active means under 50% inhibition at 10 µM
T3 sequence (P50052 whole entry): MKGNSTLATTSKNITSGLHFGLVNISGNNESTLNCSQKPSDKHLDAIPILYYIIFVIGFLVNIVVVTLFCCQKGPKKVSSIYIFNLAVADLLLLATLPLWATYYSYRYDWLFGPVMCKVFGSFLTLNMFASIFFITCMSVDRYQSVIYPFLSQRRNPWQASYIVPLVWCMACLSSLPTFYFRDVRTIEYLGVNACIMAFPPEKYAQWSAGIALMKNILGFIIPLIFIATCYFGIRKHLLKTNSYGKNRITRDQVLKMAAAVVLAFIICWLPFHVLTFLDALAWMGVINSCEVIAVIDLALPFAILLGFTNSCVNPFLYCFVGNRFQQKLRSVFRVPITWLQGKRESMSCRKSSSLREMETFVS

Glucocorticoid receptor = biological target: T4, Glucocorticoid receptor (Homo sapiens, UniProt P04150); conditions: hela s3; also: in other assays of this panel Not Active means under 50% inhibition at 10 µM
T4 sequence (P04150 whole entry): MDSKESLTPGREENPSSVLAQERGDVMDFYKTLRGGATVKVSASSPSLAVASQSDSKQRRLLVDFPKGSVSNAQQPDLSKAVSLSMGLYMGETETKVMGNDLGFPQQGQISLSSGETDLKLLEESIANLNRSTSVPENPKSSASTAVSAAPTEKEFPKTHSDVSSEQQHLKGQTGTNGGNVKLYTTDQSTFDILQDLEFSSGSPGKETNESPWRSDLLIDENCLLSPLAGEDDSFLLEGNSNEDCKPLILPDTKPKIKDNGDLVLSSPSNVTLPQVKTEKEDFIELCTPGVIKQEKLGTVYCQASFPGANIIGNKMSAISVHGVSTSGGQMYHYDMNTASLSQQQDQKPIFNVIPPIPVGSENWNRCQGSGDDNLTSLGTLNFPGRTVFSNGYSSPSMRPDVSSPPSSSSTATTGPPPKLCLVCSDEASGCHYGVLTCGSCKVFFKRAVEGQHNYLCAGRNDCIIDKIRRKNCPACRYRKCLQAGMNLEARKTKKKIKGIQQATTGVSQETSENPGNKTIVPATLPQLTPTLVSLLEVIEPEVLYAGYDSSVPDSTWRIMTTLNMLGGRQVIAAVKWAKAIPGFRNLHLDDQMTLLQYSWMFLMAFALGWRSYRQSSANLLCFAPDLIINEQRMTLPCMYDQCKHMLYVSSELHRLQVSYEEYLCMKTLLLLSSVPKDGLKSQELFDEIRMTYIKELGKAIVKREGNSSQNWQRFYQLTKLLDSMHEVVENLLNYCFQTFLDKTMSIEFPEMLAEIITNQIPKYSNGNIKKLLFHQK

[5] = biological target: T5, Amine oxidase [flavin-containing] A (Homo sapiens, UniProt P21397); test: DRUGMATRIX: Monoamine Oxidase MAO-A enzyme inhibition (substrate: Kynuramine); set-up: species or system BTI-TN-5B1-4; conditions: bti-tn-5b1-4; Not Active = under 50% inhibition at 10 µM
T5 sequence (P21397 whole entry): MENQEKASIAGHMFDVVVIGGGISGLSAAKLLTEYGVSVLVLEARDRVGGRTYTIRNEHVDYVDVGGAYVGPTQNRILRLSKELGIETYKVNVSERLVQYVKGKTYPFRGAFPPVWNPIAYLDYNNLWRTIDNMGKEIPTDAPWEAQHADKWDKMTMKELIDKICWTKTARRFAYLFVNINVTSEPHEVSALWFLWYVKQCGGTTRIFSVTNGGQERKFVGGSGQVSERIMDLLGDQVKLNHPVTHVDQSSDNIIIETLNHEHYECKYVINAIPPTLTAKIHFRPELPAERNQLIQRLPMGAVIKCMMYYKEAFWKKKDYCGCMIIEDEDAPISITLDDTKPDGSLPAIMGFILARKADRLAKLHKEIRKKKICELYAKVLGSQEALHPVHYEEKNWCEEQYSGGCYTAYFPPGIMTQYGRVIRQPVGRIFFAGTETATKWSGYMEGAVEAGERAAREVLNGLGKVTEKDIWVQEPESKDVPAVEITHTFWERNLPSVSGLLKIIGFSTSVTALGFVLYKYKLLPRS

Insulin receptor = Insulin receptor (Rattus norvegicus, UniProt P15127); assay type: cell membranes, Wistar, Liver, Membrane; also: in other assays of this panel Not Active means under 50% inhibition at 10 µM
[6] = DRUGMATRIX: Leukotriene, BLT (LTB4) radioligand binding (ligand: [3H]LTB4); assay type: cell membranes, Membrane; conditions: u-937; Not Active = under 50% inhibition at 10 µM

Sequence of Insulin receptor (P15127 27-759 limits assumed): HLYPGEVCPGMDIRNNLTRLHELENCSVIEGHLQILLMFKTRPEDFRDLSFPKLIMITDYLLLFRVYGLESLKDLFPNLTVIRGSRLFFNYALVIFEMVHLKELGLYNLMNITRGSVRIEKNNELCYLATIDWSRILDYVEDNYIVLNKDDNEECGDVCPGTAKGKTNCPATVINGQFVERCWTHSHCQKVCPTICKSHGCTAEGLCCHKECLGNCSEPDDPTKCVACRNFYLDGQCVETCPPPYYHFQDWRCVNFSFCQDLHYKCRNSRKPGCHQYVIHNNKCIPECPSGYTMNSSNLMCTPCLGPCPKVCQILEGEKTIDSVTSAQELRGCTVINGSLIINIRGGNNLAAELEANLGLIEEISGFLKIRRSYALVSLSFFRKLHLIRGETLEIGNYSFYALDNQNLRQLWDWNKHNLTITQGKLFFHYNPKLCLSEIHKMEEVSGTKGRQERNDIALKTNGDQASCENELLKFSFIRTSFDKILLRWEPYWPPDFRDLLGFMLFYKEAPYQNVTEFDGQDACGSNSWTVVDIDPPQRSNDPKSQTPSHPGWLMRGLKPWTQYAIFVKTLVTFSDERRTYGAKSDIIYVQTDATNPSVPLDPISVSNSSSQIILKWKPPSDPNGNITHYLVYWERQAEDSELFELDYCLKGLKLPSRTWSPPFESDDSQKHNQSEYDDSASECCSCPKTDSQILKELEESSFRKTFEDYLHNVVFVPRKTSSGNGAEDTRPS
Sequence of Insulin receptor (P15127 764-1383 limits assumed): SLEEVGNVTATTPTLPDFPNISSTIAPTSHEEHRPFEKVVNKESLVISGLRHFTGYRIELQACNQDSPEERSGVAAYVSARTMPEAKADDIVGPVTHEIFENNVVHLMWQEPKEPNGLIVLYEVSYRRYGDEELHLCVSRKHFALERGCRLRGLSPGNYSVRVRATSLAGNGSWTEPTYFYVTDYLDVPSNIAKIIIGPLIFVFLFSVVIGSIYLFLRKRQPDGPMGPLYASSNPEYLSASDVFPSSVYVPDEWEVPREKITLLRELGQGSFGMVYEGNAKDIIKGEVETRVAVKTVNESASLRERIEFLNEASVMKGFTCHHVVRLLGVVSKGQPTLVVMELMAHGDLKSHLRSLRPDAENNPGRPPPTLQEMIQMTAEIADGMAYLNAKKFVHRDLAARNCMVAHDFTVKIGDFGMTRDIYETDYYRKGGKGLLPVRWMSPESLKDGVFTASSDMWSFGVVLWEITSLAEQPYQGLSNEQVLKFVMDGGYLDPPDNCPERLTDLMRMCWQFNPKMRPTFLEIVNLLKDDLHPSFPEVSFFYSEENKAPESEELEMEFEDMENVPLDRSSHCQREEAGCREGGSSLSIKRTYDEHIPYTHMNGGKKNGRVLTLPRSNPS
Sequence of C-C chemokine receptor type 2 (P41597 whole entry): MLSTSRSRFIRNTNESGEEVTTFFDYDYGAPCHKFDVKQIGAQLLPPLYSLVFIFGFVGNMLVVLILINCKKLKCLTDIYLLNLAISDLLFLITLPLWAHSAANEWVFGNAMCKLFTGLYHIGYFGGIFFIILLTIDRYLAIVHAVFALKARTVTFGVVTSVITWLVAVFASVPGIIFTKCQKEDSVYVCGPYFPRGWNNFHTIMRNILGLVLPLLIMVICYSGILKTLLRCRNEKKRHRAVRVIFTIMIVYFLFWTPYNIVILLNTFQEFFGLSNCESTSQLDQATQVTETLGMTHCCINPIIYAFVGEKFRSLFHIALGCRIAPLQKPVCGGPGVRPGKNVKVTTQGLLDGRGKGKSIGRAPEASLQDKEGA

O=c1[nH]c(=O)n([C@H]2C[C@H](O)[C@@H](CO)O2)cc1F [FLOXURIDINE]
Not Active: IC50 [1] | IC50 [2] | IC50 [3] | IC50 [4] | IC50 (Glucocorticoid receptor) | IC50 [5] | IC50 (Insulin receptor) | IC50 [6] | Ki [6]

COC(=O)Nc1nc2cc(C(=O)c3ccc(F)cc3)ccc2[nH]1 [FLUBENDAZOLE]
Not Active: IC50 [1] | IC50 [2] | IC50 [3] | IC50 [4] | IC50 (Glucocorticoid receptor) | IC50 [5] | IC50 (Insulin receptor) | IC50 [6] | Ki [6]

O=C(O)P(=O)(O)O [FOSCARNET]
Not Active: IC50 [1] | IC50 [2] | IC50 [3] | IC50 [4] | IC50 (Glucocorticoid receptor) | IC50 [5] | IC50 (Insulin receptor) | IC50 [6] | Ki [6]

CCC1=C(C)CN(C(=O)NCCc2ccc(S(=O)(=O)NC(=O)N[C@H]3CC[C@H](C)CC3)cc2)C1=O [GLIMEPIRIDE]
Not Active: IC50 [1] | IC50 [2] | IC50 [3] | IC50 [4] | IC50 (Glucocorticoid receptor) | IC50 [5] | IC50 (Insulin receptor) | IC50 [6] | Ki [6]

Nc1cc(-c2ccncc2)c[nH]c1=O [INAMRINONE]
Not Active: IC50 [1] | IC50 [2] | IC50 [3] | IC50 [4] | IC50 (Glucocorticoid receptor) | IC50 [5] | IC50 (Insulin receptor) | IC50 [6] | Ki [6]

CN1CCC(=C2c3ccccc3CC(=O)c3sccc32)CC1 [KETOTIFEN]
Not Active: IC50 [1] | Ki [2] | IC50 [3] | IC50 [4] | IC50 (Glucocorticoid receptor) | IC50 [5] | IC50 (Insulin receptor) | IC50 [6] | Ki [6]

N[C@@H](Cn1ccc(=O)c(O)c1)C(=O)O [L-MIMOSINE]
Not Active: IC50 [1] | IC50 [2] | IC50 [3] | IC50 [4] | IC50 (Glucocorticoid receptor) | IC50 [5] | IC50 (Insulin receptor) | IC50 [6] | Ki [6]

C[N+](C)(C)C[C@H](O)CC(=O)[O-] [LEVOCARNITINE]
Not Active: IC50 [1] | IC50 [2] | IC50 [3] | IC50 [4] | IC50 (Glucocorticoid receptor) | IC50 [5] | IC50 (Insulin receptor) | IC50 [6] | Ki [6]

CCn1cc(C(=O)O)c(=O)c2cc(F)c(N3CCNC(C)C3)c(F)c21 (stereo unspecified) [LOMEFLOXACIN]
Not Active: IC50 [1] | IC50 [2] | IC50 [3] | IC50 [4] | IC50 (Glucocorticoid receptor) | IC50 [5] | IC50 (Insulin receptor) | IC50 [6] | Ki [6]

CN1CCCC(CN2c3ccccc3Sc3ccccc32)C1 (stereo unspecified) [MEPAZINE]
Not Active: IC50 [1] | IC50 [2] | IC50 [3] | IC50 [4] | IC50 (Glucocorticoid receptor) | IC50 [5] | IC50 (Insulin receptor) | IC50 [6] | Ki [6]

Cc1cccc(C)c1NC(=O)C1CCCCN1C (stereo unspecified) [MEPIVACAINE]
Not Active: IC50 [1] | IC50 [2] | IC50 [3] | IC50 [4] | IC50 (Glucocorticoid receptor) | IC50 [5] | IC50 (Insulin receptor) | IC50 [6] | Ki [6]

CN(C)C(=N)NC(=N)N [METFORMIN]
Not Active: IC50 [1] | IC50 [2] | IC50 [3] | IC50 [4] | IC50 (Glucocorticoid receptor) | IC50 [5] | IC50 (Insulin receptor) | IC50 [6] | Ki [6]

CC(C)(C)NCC(O)COc1cccc2c1CC(O)C(O)C2 (stereo unspecified) [NADOLOL]
Not Active: IC50 [1] | IC50 [2] | IC50 [3] | IC50 [4] | IC50 (Glucocorticoid receptor) | IC50 [5] | IC50 (Insulin receptor) | IC50 [6] | Ki [6]

C[C@]12CC[C@H]3[C@@H](CCC4=CC(=O)CC[C@@H]43)[C@@H]1CC[C@@H]2O [NANDROLONE]
Not Active: IC50 [1] | IC50 [2] | IC50 [3] | IC50 [4] | IC50 (Glucocorticoid receptor) | IC50 [5] | IC50 (Insulin receptor) | IC50 [6] | Ki [6]

Source: ChEMBL document CHEMBL1909046, “DrugMatrix in vitro pharmacology data”
